Columns and labels:
Type in all cases: cell-based
ENL [1] = molecular target: T1, ENL (Homo sapiens, UniProt Q03111); experiment: Western blot of ENL protein levels in MV4; 11 cells; conditions: 11 cells; for ENL protein level after long treatment: 1 μM for 48 and 72 h
T1 construct: Cells were lysed and expression of endogenous ENL was assessed by Western blot analysis; host or cells: MV4;11
T1 sequence (Q03111 1-559): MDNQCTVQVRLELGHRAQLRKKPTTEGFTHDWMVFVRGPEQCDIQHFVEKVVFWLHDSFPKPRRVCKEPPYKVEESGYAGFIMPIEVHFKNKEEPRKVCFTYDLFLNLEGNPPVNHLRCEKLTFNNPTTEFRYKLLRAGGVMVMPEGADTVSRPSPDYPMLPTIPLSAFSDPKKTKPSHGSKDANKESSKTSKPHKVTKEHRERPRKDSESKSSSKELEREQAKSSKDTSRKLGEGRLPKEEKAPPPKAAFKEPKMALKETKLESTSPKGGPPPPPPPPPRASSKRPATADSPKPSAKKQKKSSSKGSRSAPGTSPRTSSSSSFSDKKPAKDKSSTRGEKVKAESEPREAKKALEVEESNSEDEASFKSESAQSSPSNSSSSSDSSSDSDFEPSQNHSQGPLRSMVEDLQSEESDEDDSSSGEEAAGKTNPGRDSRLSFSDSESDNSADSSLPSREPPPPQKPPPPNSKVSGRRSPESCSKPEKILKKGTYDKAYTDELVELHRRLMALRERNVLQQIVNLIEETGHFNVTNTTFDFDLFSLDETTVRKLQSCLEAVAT
Method: MV4; 11 cells were treated with DMSO or the indicated compounds (the same panel of ENL degraders as shown in FIG. 4) at 1 μM and 10 μM for 24 h. Cells were lysed and expression of ENL was assessed by Western blot analysis.
DMSO treated cells were used as control.
MV4; 11 cells were treated with LQ076-122, or LQ081-107 at 0.3, 1, 3, 10, and 30 μM for 24 h. DMSO treated cells were used as control. Cells were lysed and expression of ENL and GAS41 was assessed by Western analysis.
MV4; 11 cells were treated with DMSO or the indicated compounds at 1 μM and 10 μM for 6 h. Cells were lysed and expression of endogenous ENL was assessed by Western blot analysis.
Cells were treated with 1 μM of ENL degrader with or without 1 μM proteasome inhibitor MG132 for 6 h.
(§1) ENL degraders were dissolved in DMSO. DMSO with no degraders was used as the control. 1×10^6 leukemia cells were seeded in 5 mL medium. For prescreening of compounds, each test compound was added to the medium at 1 μM and 10 μM. Cells were collected after 24 h treatment. For the concentration-dependent treatment, candidate compounds were added to the medium at a series of concentration as indicated in figures. Cells were collected after 24 h treatment. For the time-course treatment, candidate compounds were added to the medium at a final concentration of 4 μM (MV4; 11 cells) or 8 μM (MOLM13 cells). Cells were collected at the indicated timepoints (in hours: 12, 16, 20, 24 and 36 h).
(§2) After ENL degrader treatment, cells were collected, lysed, and total cell lysates were used for Western blot. The following primary antibodies were used: ENL (Cell Signaling Technology), GAS41 (Santa Cruz), GAPDH (Santa Cruz), β-actin (Sigma). Blots were detected using HRP-conjugated secondary antibodies.

[2] = tested on: ENL-dependent MOLM13 leukemia cells; experiment: Cell viability (CellTiter-Glo), MOLM13 cells; conditions: MOLM13 cells, 0.5, 1, 2 and 4 μM for 72 h
Method: (§3) MV4; 11 (FIG. 13A), MOLM13 (FIG. 13B) and Jurkat (FIG. 13C) cells were seeded at 2×10^5 cells/mL density and treated with DMSO or indicated compounds 0.5, 1, 2 and 4 μM for 72 h. Cell viability was measured using CellTiter-Glo reagent (Promega) and relative cell viability was calculated by normalization to DMSO samples.
(§4) MV4; 11 or MOLM13 cells were seeded at 0.2×10^6 cells/mL density. Cells were treated with DMSO or ENL degraders at indicated concentrations. Each treatment was done in triplicates. After 72 h treatment, 100 μL of cell suspension from each treatment was mixed with 25 μL of CellTiter-Glo reagent (Promega) and incubated for 10 min before the luminescence signals were detected on a plate reader.

[3] = tested on: ENL-dependent MV4; 11 cells; experiment: Cell viability (CellTiter-Glo), MV4; 11 cells
Method: as §3
(§5) ENL-dependent MV4; 11 cells were seeded at 2×10^5 cells/mL density and treated with DMSO or the indicated compounds at 0, 1.25, 2.5, 5 and 10 μM for 72 h. Cell viability was measured using CellTiter-Glo reagent (Promega) and relative cell viability was calculated by normalization to DMSO samples.
as §5, with “11 and ENL-independent Jurkat” for “11”, “or” for “or the”, “10 nM, 100 nM, 1 μM” for “0, 1.25, 2.5, 5”, “3 days (A) or 6 days (B).” for “72 h.”
as §4

ENL [4] = molecular target: T1, ENL; experiment: Western blot of ENL protein levels in Jurkat cells; conditions: for reduction of ENL protein levels: 1 nM to 10 μM for 6 h; for ENL protein level after long treatment: 1 μM for 48 and 72 h
Description: […] DMSO was used as negative control.
as §2

ENL [5] = molecular target: T1, ENL; experiment: Western blot of ENL protein levels in MOLM13 cells; conditions: for reduction of ENL protein levels: 1 nM to 10 μM for 6 h; for ENL protein level after long treatment: 1 μM for 48 and 72 h
Method: MOLM13 cells were treated with LQ076-122 or LQ081-108 at 0, 0.25, 0.5, 1, 1.5, 2, 2.5, 3, 4 and 8 μM for 24 h.
MOLM13 cells were treated with DMSO or 8 μM of LQ076-122 for 12, 16, 20, 24 and 36 h.
MV4; 11, MOLM13 and Jurkat cells were treated with LQ108-69, LQ108-71, LQ108-72, LQ126-62 and LQ126-63 at 0, 1 nM, 10 nM, 100 nM, 1 μM, and 10 μM doses for 6 h. DMSO was used as negative control.
as §1, §2

[6] = 11 cells, 1.25, 2.5, 5 and 10 μM for 72 h

Row | SMILES | reduction of ENL protein levels (ENL [1]; 0-8 μM for 24 h) | reduction of ENL protein levels (ENL [1]; 10 μM, 24 h) | suppression of cell growth (relative cell viability) [2] | suppression of cell growth (relative cell viability) ([3]; 11 cells, 0.5, 1, 2 and 4 μM for 72 h) | reduction of ENL protein levels (ENL [1]; 1 nM to 10 μM for 6 h) | ENL protein level after long treatment (ENL [1]) | reduction of ENL protein levels (ENL [4]) | ENL protein level after long treatment (ENL [4]) | suppression of cell growth (relative cell viability) [3, 6] | reduction of ENL protein levels (ENL [5]) | ENL protein level after long treatment (ENL [5]) | effect of proteasome inhibitor MG132 on the ENL degradation induced by the degrader (ENL [1]; 1 μM degrader with or without 1 μM MG132 for 6 h)
1 | Cc1ncsc1-c1ccc([C@H](C)NC(=O)[C@@H]2C[C@@H](O)CN2C(=O)[C@@H](NC(=O)CCCCCCCCCCCNC(=O)c2ccc(C(=O)Nc3ccc4[nH]c(CN5CCC[C@@H]5C)nc4c3)cc2)C(C)(C)C)cc1 [LQ081-109, N^1-(12-(((S)-1-((2S,4R)-4-hydroxy-2-(((S)-1-(4-(4-methylthiazol-5-yl)phenyl)ethyl)carbamoyl)pyrrolidin-1-yl)-3,3-dimethyl-1-oxobutan-2-yl)amino)-12-oxododecyl)-N^4-(2-(((S)-2-methylpyrrolidin-1-yl)methyl)-1H-benzo[d]imidazol-5-yl)terephthalamide] | reduced ENL protein levels in a concentration-dependent manner | effective in reducing ENL protein levels | selectively suppressed cell growth | selectively suppressed cell growth |  |  |  |  |  |  |  | 
2 | Cc1ncsc1-c1ccc([C@H](CC(=O)NCCCCCCCCNC(=O)c2ccc3c(c2)[C@H](NC(=O)c2cc(-c4ccc(C(=O)N(C)C)c(O)c4)on2)CC3)NC(=O)[C@@H]2C[C@@H](O)CN2C(=O)[C@@H](NC(=O)C2(F)CC2)C(C)(C)C)cc1 [LQ108-71, 5-(4-(dimethylcarbamoyl)-3-hydroxyphenyl)-N—((R)-6-((8-((S)-3-((2S,4R)-1-((S)-2-(1-fluorocyclopropane-1-carboxamido)-3,3-dimethylbutanoyl)-4-hydroxypyrrolidine-2-carboxamido)-3-(4-(4-methylthiazol-5-yl)phenyl)propanamido)octyl)carbamoyl)-2,3-dihydro-1H-inden-1-yl)isoxazole-3-carboxamide] |  |  |  |  | reduced ENL protein levels in a concentration-dependent manner | maintained the ENL protein at low levels | reduced ENL protein levels in a concentration-dependent manner | maintained the ENL protein at low levels | significantly suppressed MV4; 11 cell growth at low micromolar concentration | reduced ENL protein levels in a concentration-dependent manner | maintained the ENL protein at low levels | 
3 | Cc1ncsc1-c1ccc([C@H](CC(=O)NCCCCCCCCCNC(=O)c2ccc3c(c2)[C@H](NC(=O)c2cc(-c4ccc(C(=O)N(C)C)c(O)c4)on2)CC3)NC(=O)[C@@H]2C[C@@H](O)CN2C(=O)[C@@H](NC(=O)C2(F)CC2)C(C)(C)C)cc1 [LQ108-72, 5-(4-(dimethylcarbamoyl)-3-hydroxyphenyl)-N—((R)-6-((9-((S)-3-((2S,4R)-1-((S)-2-(1-fluorocyclopropane-1-carboxamido)-3,3-dimethylbutanoyl)-4-hydroxypyrrolidine-2-carboxamido)-3-(4-(4-methylthiazol-5-yl)phenyl)propanamido)nonyl)carbamoyl)-2,3-dihydro-1H-inden-1-yl)isoxazole-3-carboxamide] |  |  |  |  | reduced ENL protein levels in a concentration-dependent manner | maintained the ENL protein at low levels | reduced ENL protein levels in a concentration-dependent manner | maintained the ENL protein at low levels | significantly suppressed MV4; 11 cell growth at low micromolar concentration | reduced ENL protein levels in a concentration-dependent manner | maintained the ENL protein at low levels | 
4 | Cc1ncsc1-c1ccc(CNC(=O)[C@@H]2C[C@@H](O)CN2C(=O)[C@@H](NC(=O)CCCCCCCCCNC(=O)c2ccc3c(c2)[C@H](NC(=O)c2cc(-c4ccc(C(=O)N(C)C)c(O)c4)on2)CC3)C(C)(C)C)cc1 [LQ126-62, 5-(4-(dimethylcarbamoyl)-3-hydroxyphenyl)-N—((R)-6-((10-(((S)-1-((2S,4R)-4-hydroxy-2-((4-(4-methylthiazol-5-yl)benzyl)carbamoyl)pyrrolidin-1-yl)-3,3-dimethyl-1-oxobutan-2-yl)amino)-10-oxodecyl)carbamoyl)-2,3-dihydro-1H-inden-1-yl)isoxazole-3-carboxamide] |  |  |  |  | reduced ENL protein levels in a concentration-dependent manner | maintained the ENL protein at low levels | reduced ENL protein levels in a concentration-dependent manner | maintained the ENL protein at low levels | significantly suppressed MV4; 11 cell growth at low micromolar concentration | reduced ENL protein levels in a concentration-dependent manner | maintained the ENL protein at low levels | partially blocks the ENL degradation
